Measurements reported in patent US4812409A, “Hydrolyzable fluorescent substrates and analytical determinations using same” (Eastman Kodak Company, priority 1986, dated 1989).

What was measured:
[1] = test system: Enterobacter cloacae (ATCC 23355); assay: Detection of Enterobacter cloacae with β-D-xylosidase substrate, fluorescence; format: cell-based; details: for Relative Fluorescence: 37° C., ex 540 nm, em 620 nm
Protocol: (§1) Cells were prepared as follows. A β-D-xylosidase induction medium was prepared by adding the following materials in order to 350 μl of 0.1 molar sodium, potassium phosphate buffer (pH 7.0), 25 μl 5% yeast extract, 50 μl of 4% (NH4)2 HPO4 and 1% KCl, 50 μl 0.0075% MnSO4.H2 O and 0.01% FeSO4.7H2 O. This mixture was autoclaved for 30 minutes, then cooled. Just before incubation, 25 μl of 20% xylose solution and 2% MgSO4.7H2 O, which had been filter sterilized or autoclaved separately, were added. Klebsiella pneumoniae (ATCC 13882) and Enterobacter cloacae (ATCC 23355) were both grown in this medium for 18 hours at 37° C. Ten milliliters of cells were harvested by centrifugation, washed, and resuspended in 0.1 molar potassium phosphate buffer (pH 7.0). The cell concentration was adjusted to approximately 5×10^8 cells/ml (optical density 0.800 at 620 nm).
(§2) In two milliliters HA 96 well titration plates were placed 200 μl of the cell suspension. To plate 1 was added 100 μl of the substrate solution of Example 1 without surfactant (10 μg/μl N,N-dimethylformamide in 9 μl potassium phosphate buffer), to plate 2 was added the substrate solution with surfactant (10 μg/μl N,N-dimethylformamide and 200 μl TRITON X-100 surfactant in 9 μl potassium phosphate buffer).
(§3) After the substrate was added, an initial reading was taken, the plates were kept at 37° C., and additional readings were taken after 5, 10, 15, 30, and 60 minutes. The average of three replicates was used. A commercially available Dynatech Microfluor Reader, modified with an excitation filter at 540 nm, an emission filter at 620 nm, a 200-watt tungsten lamp and a heating element, was used to measure fluorescence.

[2] = test system: Klebsiella pneumoniae (ATCC 13882); assay: Detection of Klebsiella pneumoniae with β-D-xylosidase substrate, fluorescence; format: cell-based; details: for Relative Fluorescence: 37° C., ex 540 nm, em 620 nm
Protocol: as §1, §2, §3

[3] = Millititer Plate 1, without surfactant, 0 min
[4] = Millititer Plate 1, without surfactant, 5 min
[5] = Millititer Plate 1, without surfactant, 10 min
[6] = Millititer Plate 1, without surfactant, 15 min
[7] = Millititer Plate 1, without surfactant, 30 min
[8] = Millititer Plate 1, without surfactant, 60 min
[9] = Millititer Plate 2, with TRITON X-100 surfactant, 0 min
[10] = Millititer Plate 2, with TRITON X-100 surfactant, 5 min
[11] = Millititer Plate 2, with TRITON X-100 surfactant, 10 min
[12] = Millititer Plate 2, with TRITON X-100 surfactant, 15 min
[13] = Millititer Plate 2, with TRITON X-100 surfactant, 30 min
[14] = Millititer Plate 2, with TRITON X-100 surfactant, 60 min
[15] = both substrate solutions (with and without surfactant)

O=C1C=Cc2ccc(O[C@@H]3OC[C@@H](O)[C@H](O)[C@H]3O)c3cccc1c23 [Example 1, 1-(6-Oxyphenalenone)-β-D-xylopyranose]
Relative Fluorescence [1, 3]: 525 | Relative Fluorescence [1, 4]: 684 | Relative Fluorescence [1, 5]: 925 | Relative Fluorescence [1, 6]: 1150 | Relative Fluorescence [1, 7]: 2245 | Relative Fluorescence [1, 8]: 2717 | Relative Fluorescence [1, 9]: 586 | Relative Fluorescence [1, 10]: 902 | Relative Fluorescence [1, 11]: 1341 | Relative Fluorescence [1, 12]: 1795 | Relative Fluorescence [1, 13]: 2626 | Relative Fluorescence [1, 14]: 3003 | Time at which the microorganism can be detected [1, 15]: 15 min | Relative Fluorescence [2, 3]: 500 | Relative Fluorescence [2, 4]: 585 | Relative Fluorescence [2, 5]: 698 | Relative Fluorescence [2, 6]: 752 | Relative Fluorescence [2, 7]: 1205 | Relative Fluorescence [2, 8]: 1686 | Relative Fluorescence [2, 9]: 557 | Relative Fluorescence [2, 10]: 635 | Relative Fluorescence [2, 11]: 741 | Relative Fluorescence [2, 12]: 869 | Relative Fluorescence [2, 13]: 1232 | Relative Fluorescence [2, 14]: 1976 | Time at which the microorganism can be detected [2, 15]: 15 min
